Measured values published in ChEMBL document CHEMBL3865791, “Discovery and development of natural product oridonin-inspired anticancer agents” (Eur J Med Chem, 2016).
Counter-ions that a name gives are not always drawn.

How the values were obtained:
[1] = Antiproliferative activity against human MCF7 cells; assay type: functional, cell-based
[2] = Antiproliferative activity against human MDA-MB-231 cells; assay type: functional, cell-based
MDA-MB-231 = test: Potency index, ratio of Oridonin EC50 to compound EC50 for human MDA-MB-231; assay type: functional
[3] = Antiproliferative activity against human ER-positive MCF7 cells measured after 48 hrs by MTT assay; assay type: functional, cell-based; conditions: MCF7, 48 h
[4] = Antiproliferative activity against human MDA-MB-231 cells measured after 48 hrs by MTT assay; assay type: functional, cell-based; conditions: MDA-MB-231, 48 h
[5] = Antiproliferative activity against human ER-triple negative MDA-MB-468 cells measured after 48 hrs by MTT assay; assay type: functional, cell-based; conditions: MDA-MB-468, 48 h
[6] = Antiproliferative activity against human MCF7/ADR cells measured after 48 hrs by MTT assay; assay type: functional, cell-based; conditions: NCI/ADR-RES
[7] = Antiproliferative activity against human […] cells after 72 hrs by MTT assay; assay type: functional, cell-based
[8] = Antiproliferative activity against human CaEs17 cells after 72 hrs by MTT assay; assay type: functional, cell-based; conditions: CaEs17, 72 h
[9] = Antiproliferative activity against human MGC803 cells after 72 hrs by MTT assay; assay type: functional, cell-based; conditions: MGC-803, 72 h
[10] = Antiproliferative activity against human K562 cells after 72 hrs by MTT assay; assay type: functional, cell-based; conditions: K562, 72 h
[11] = Cytotoxicity against human K562 cells by MTT assay; assay type: functional, cell-based

Which EC50 [1] does the source give for `C=CCNc1nc2c(s1)CC(C)(C)[C@H]1[C@H](O)[C@]3(O)OC[C@@]21[C@@H]1CC[C@H]2C(=C)C(=O)[C@]13[C@@H]2O` here?
The EC50 was 200 nM.

What about the EC50 [2] of the same compound?
The EC50 was 200 nM.

What about the “Ratio EC50” value (MDA-MB-231) of the same compound?
Its value is 147.

With `C=C1C(=O)[C@]23[C@H](O)[C@H]1CC[C@H]2[C@@]12CO[C@@]3(O)[C@@H](O)[C@@H]1C(C)(C)Cc1sc(NC)nc12` as the compound, how does the EC50 [1] read?
Its EC50 is 1300 nM.

And the EC50 [2]?
Its EC50 is 2100 nM.

For `C=C1C(=O)[C@]23[C@H](O)[C@H]1CC[C@H]2[C@@]12CO[C@@]3(O)[C@@H](O)[C@@H]1C(C)(C)Cc1sc(NC(=N)N)nc12`, which EC50 [1] is on record?
The EC50 was 3400 nM.

And the EC50 [2]?
Its EC50 is over 10000 nM.

For `COc1cccc2c1C(=O)c1c(O)c3c(c(O)c1C2=O)C[C@@](O)(C(=O)CO)C[C@@H]3O[C@H]1C[C@H](N)[C@H](O)[C@H](C)O1` [DOXORUBICIN HYDROCHLORIDE], which EC50 [3] is on record?
The EC50 was 700 nM.

What about the EC50 [4] of the same compound?
Its EC50 is 2300 nM.

What about the EC50 [5] of the same compound?
Its EC50 is 700 nM.

What about the EC50 [6] of the same compound?
The EC50 was over 10000 nM.

For `C=C1C(=O)[C@@]23C(=O)O[C@H]4CCC(C)(C)[C@H]5[C@H](O)OC[C@@]45[C@@H]2CC[C@@H]1[C@H]3OC(C)=O`, which EC50 [7] is on record?
Its EC50 is 1970 nM.

And the EC50 [8]?
The EC50 was 1590 nM.

What about the EC50 [9] of the same compound?
Its EC50 is 1990 nM.

And the EC50 [10]?
The EC50 was 1110 nM.

For `C=C1C(=O)[C@@]23[C@@H]4OC(C)(C)O[C@@]25OC[C@]2(C6=C(CC[C@@H](OCC(C)C)O6)CC(C)(C)[C@H]2[C@@H]5O)[C@@H]3CC[C@@H]14`, which EC50 [3] is on record?
Its EC50 is 5800 nM.

What about the EC50 [4] of the same compound?
The EC50 was 8200 nM.

What about the EC50 [5] of the same compound?
The EC50 was 7000 nM.

And the EC50 [6]?
The EC50 was 10300 nM.

Which EC50 [3] does the source give for `C=C1C(=O)[C@@]23[C@@H]4OC(C)(C)O[C@@]25OC[C@]2(C6=C(CC[C@@H](OCC)O6)CC(C)(C)[C@H]2[C@@H]5O)[C@@H]3CC[C@@H]14` here?
The EC50 was 440 nM.

And the EC50 [4]?
Its EC50 is 540 nM.

And the EC50 [5]?
Its EC50 is 520 nM.

What about the EC50 [6] of the same compound?
Its EC50 is 1600 nM.

For `C=C1C(=O)[C@]23[C@H](O)[C@H]1CC[C@H]2[C@@]12CO[C@@]3(O)[C@@H](O)[C@@H]1C(C)(C)Cc1sc(N3CCCCCC3)nc12`, which EC50 [1] is on record?
The EC50 was 1200 nM.

What about the EC50 [2] of the same compound?
Its EC50 is 6800 nM.

Which EC50 [3] does the source give for `C=C1C(=O)[C@@]23[C@@H]4OC(C)(C)O[C@@]25OC[C@]2(C6=C(CC[C@H](OCC)O6)CC(C)(C)[C@H]2[C@@H]5O)[C@@H]3CC[C@@H]14` here?
The EC50 was 3500 nM.

And the EC50 [4]?
The EC50 was 6100 nM.

And the EC50 [5]?
Its EC50 is 5400 nM.

What about the EC50 [6] of the same compound?
Its EC50 is 4700 nM.

With `C=C1C(=O)[C@@]23C(=O)O[C@H]4CCC(C)(C)[C@H]5C(=O)OC[C@@]45[C@@H]2CC[C@@H]1[C@H]3OC(=O)c1ccccc1Cl` as the compound, how does the EC50 [7] read?
Its EC50 is 720 nM.

What about the EC50 [8] of the same compound?
Its EC50 is 280 nM.

What about the EC50 [9] of the same compound?
Its EC50 is 820 nM.

What about the EC50 [10] of the same compound?
Its EC50 is 260 nM.

Which results are given for `C=C1C(=O)[C@@]23[C@@H]4OC(C)(C)O[C@@]25OC[C@]2(C6=C(CC[C@@H](OCCCl)O6)CC(C)(C)[C@H]2[C@@H]5O)[C@@H]3CC[C@@H]14`?
EC50 [3]: 6800 nM; EC50 [4]: 7200 nM; EC50 [5]: 7300 nM; EC50 [6]: 8700 nM

Which EC50 [7] does the source give for `C=C1C(=O)[C@@]23C(=O)O[C@H]4CCC(C)(C)[C@H]5[C@H](O)OC[C@@]45[C@@H]2CC[C@@H]1[C@H]3OC(=O)c1ccccc1Cl` here?
Its EC50 is 850 nM.

What about the EC50 [8] of the same compound?
The EC50 was 600 nM.

And the EC50 [9]?
The EC50 was 800 nM.

What about the EC50 [10] of the same compound?
The EC50 was 220 nM.

For `C=C1C(=O)[C@]23[C@H](O)[C@H]1CC[C@H]2[C@@]12CO[C@@]3(O)[C@@H](O)[C@@H]1C(C)(C)Cc1sc(NCCN3CCCCC3)nc12`, which EC50 [1] is on record?
The EC50 was 1000 nM.

And the EC50 [2]?
Its EC50 is 1800 nM.

Which EC50 [1] does the source give for `C=C1C(=O)[C@]23[C@H](O)[C@H]1CC[C@H]2[C@@]12CO[C@@]3(O)[C@@H](O)[C@@H]1C(C)(C)Cc1sc(N)nc12` here?
Its EC50 is 1000 nM.

And the EC50 [2]?
Its EC50 is 3200 nM.

For `C=C1C(=O)[C@@]23[C@@H]4OC(C)(C)O[C@@]25OC[C@]2(C6=C(CC[C@H](OCCCC)O6)CC(C)(C)[C@H]2[C@@H]5O)[C@@H]3CC[C@@H]14`, which EC50 [3] is on record?
The EC50 was 2400 nM.

What about the EC50 [4] of the same compound?
The EC50 was 2200 nM.

And the EC50 [5]?
The EC50 was 3000 nM.

And the EC50 [6]?
The EC50 was 3800 nM.

For `C=C1C(=O)[C@@]23C(=O)O[C@H]4CCC(C)(C)[C@H]5C(=O)OC[C@@]45[C@@H]2CC[C@@H]1[C@H]3OC(C)=O`, which EC50 [7] is on record?
The EC50 was 1370 nM.

What about the EC50 [8] of the same compound?
The EC50 was 690 nM.

And the EC50 [9]?
The EC50 was 1270 nM.

And the EC50 [10]?
The EC50 was 350 nM.

For `CC(=O)[C@@H]1CC[C@H]2[C@@]34CO[C@@]5(O)[C@@H](OC(=O)[C@]25[C@@H]1O)[C@@H]3C(C)(C)CC[C@@H]4O`, which EC50 [11] is on record?
The EC50 was 18500 nM.

For `C=C1C(=O)[C@]23[C@H](O)[C@H]1CC[C@H]2[C@@]12CO[C@@]3(O)[C@@H](O)[C@@H]1C(C)(C)Cc1sc(NC3CCCCC3)nc12`, which EC50 [1] is on record?
Its EC50 is 900 nM.

What about the EC50 [2] of the same compound?
Its EC50 is 800 nM.
